Test results: patent publication US10035760B2, “Inhibitors of human immunodeficiency virus replication” (priority 2013, dated 2018)
Like-named read-outs stand apart in the source and are kept apart here.

Tested on: recombinant NL4-3 virus (Renilla luciferase) in MT-2 cells
Test: HIV cell culture assay (antiviral activity, luciferase readout in infected MT-2 cells)
Assay type: cell-based
Settings: Renilla
How it was run: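 EC50 derived via median-effect equation from luciferase activity in MT-2 cells after 4–5 day infection, compound serially diluted. Virus: recombinant NL4-3 with Renilla luciferase replacing part of nef, made in 293T cells.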

[1] = NL43, read-out: Activity, antiviral activity class, recombinant NL4-3 Renilla luciferase virus in MT-2 cells
[2] = NL43, recombinant NL4-3 Renilla luciferase virus in MT-2 cells

SMILES | EC50 [1] [nM] | EC50 [2] [nM]
Cc1ccccc1S(=O)(=O)NC(=O)N[C@@H](Cc1cccc(C(F)(F)F)c1)C(=O)N(C)c1ccc2c(c1)OCO2 [Example 71, (S)—N-(benzo[d][1,3]dioxol-5-yl)-N-methyl-2-(3-(o-tolylsulfonyl)ureido)-3-(3-(trifluoromethyl)phenyl)propanamide] | 100 to 1000 | 
Cc1ccc(C[C@H](NC(=O)NS(=O)(=O)c2ccccc2C)C(=O)N(C)c2ccc3c(c2)OCO3)cc1 [Example 72, (S)—N-(benzo[d][1,3]dioxol-5-yl)-N-methyl-3-(p-tolyl)-2-(3-(o-tolylsulfonyl)ureido)propanamide] | 100 to 1000 | 580
CC(=O)Nc1ccc(C[C@H](NC(=O)NS(=O)(=O)c2ccccc2C)C(=O)N(C)c2ccc3c(c2)OCO3)cc1 [Example 73, (S)-3-(4-acetamidophenyl)-N-(benzo[d][1,3]dioxol-5-yl)-N-methyl-2-(3-(o-tolylsulfonyl)ureido)propanamide] |  | > 100000
Cc1ccccc1S(=O)(=O)NC(=O)N[C@@H](Cc1ccc(Cl)cc1Cl)C(=O)N(C)c1ccc2c(c1)OCO2 [Example 74, (S)—N-(benzo[d][1,3]dioxol-5-yl)-3-(2,4-dichlorophenyl)-N-methyl-2-(3-(o-tolylsulfonyl)ureido)propanamide] | 1000 to 10000 | 3880
Cc1ccccc1S(=O)(=O)NC(=O)N[C@@H](Cc1cc(F)c(F)cc1F)C(=O)N(C)c1ccc2c(c1)OCO2 [Example 75, (S)—N-(benzo[d][1,3]dioxol-5-yl)-N-methyl-2-(3-(o-tolylsulfonyl)ureido)-3-(2,4,5-trifluorophenyl)propanamide] | 100 to 1000 | 290
Cc1ccccc1S(=O)(=O)NC(=O)N[C@@H](Cc1ccccc1Br)C(=O)N(C)c1ccc2c(c1)OCO2 [Example 76, (S)—N-(benzo[d][1,3]dioxol-5-yl)-3-(2-bromophenyl)-N-methyl-2-(3-(o-tolylsulfonyl)ureido)propanamide] | 1000 to 10000 | 
Cc1ccccc1S(=O)(=O)NC(=O)N[C@@H](Cc1ccccc1C#N)C(=O)N(C)c1ccc2c(c1)OCO2 [Example 77, (S)—N-(benzo[d][1,3]dioxol-5-yl)-3-(2-cyanophenyl)-N-methyl-2-(3-(o-tolylsulfonyl)ureido)propanamide] | 1000 to 10000 | 
COc1cccc(C[C@H](NC(=O)NS(=O)(=O)c2ccccc2C)C(=O)N(C)c2ccc3c(c2)OCO3)c1 [Example 78, (S)—N-(benzo[d][1,3]dioxol-5-yl)-3-(3-methoxyphenyl)-N-methyl-2-(3-(o-tolylsulfonyl)ureido)propanamide] | 100 to 1000 | 
Cc1ccccc1S(=O)(=O)NC(=O)N[C@@]1(C(=O)N(C)c2ccc3c(c2)OCO3)C[C@H]1c1ccccc1 [Example 79, (1S,2S)—N-(benzo[d][1,3]dioxol-5-yl)-N-methyl-2-phenyl-1-(3-(o-tolylsulfonyl)ureido)cyclopropanecarboxamide] | 10000 to 100000 | 
Cc1ccccc1S(=O)(=O)NC(=O)N[C@@H](Cc1cccc(C(N)=O)c1)C(=O)N(C)c1ccc2c(c1)OCO2 [Example 80, (S)-3-(3-(benzo[d][1,3]dioxol-5-yl(methyl)amino)-3-oxo-2-(3-(o-tolylsulfonyl)ureido)propyl)benzamide] |  | > 100000
Cc1ccccc1S(=O)(=O)NC(=O)N[C@@H](Cc1cccc(S(=O)(=O)N2CCOCC2)c1)C(=O)N(C)c1ccc2c(c1)OCO2 [Example 81, (S)—N-(benzo[d][1,3]dioxol-5-yl)-N-methyl-3-(3-(morpholinosulfonyl)phenyl)-2-(3-(o-tolylsulfonyl)ureido)propanamide] | 10000 to 100000 | 
Cc1ccccc1S(=O)(=O)NC(=O)N[C@@H](Cc1ccc(O)cc1)C(=O)N(C)c1ccc2c(c1)OCO2 [Example 82, (S)—N-(benzo[d][1,3]dioxol-5-yl)-3-(4-hydroxyphenyl)-N-methyl-2-(3-(o-tolylsulfonyl)ureido)propanamide] | 1000 to 10000 | 
Cc1ccccc1S(=O)(=O)NC(=O)N[C@@H](Cc1cccc2ccccc12)C(=O)N(C)c1ccc2c(c1)OCO2 [Example 83, (S)—N-(benzo[d][1,3]dioxol-5-yl)-N-methyl-3-(naphthalen-1-yl)-2-(3-(o-tolylsulfonyl)ureido)propanamide] | 1000 to 10000 | 4280
Cc1ccccc1S(=O)(=O)NC(=O)N[C@H](C(=O)N(C)c1ccc2c(c1)OCO2)[C@H]1CCc2ccccc21 [Example 84, (S)—N-(benzo[d][1,3]dioxol-5-yl)-2-((S)-2,3-dihydro-1H-inden-1-yl)-N-methyl-2-(3-(o-tolylsulfonyl)ureido)acetamide] | 10000 to 100000 | 22100
Cc1ccccc1S(=O)(=O)NC(=O)N[C@@H](Cc1cccc(F)c1)C(=O)N(C)c1ccc2c(c1)OCO2 [Example 85, (S)—N-(benzo[d][1,3]dioxol-5-yl)-3-(3-fluorophenyl)-N-methyl-2-(3-(o-tolylsulfonyl)ureido)propanamide] | 100 to 1000 | 
CN(C(=O)[C@@H](Cc1ccccc1)NC(=O)NS(=O)(=O)c1ccccc1)c1ccc2c(c1)OCO2 [Example 86] | 10000 to 100000 | 
CN(C(=O)[C@H](Cc1ccccc1)NC(=O)NS(=O)(=O)c1ccccc1)c1ccccc1 [Example 87, (S)—N-methyl-N, 3-diphenyl-2-(3-(phenylsulfonyl)ureido)propanamide] | 100 to 1000 | 
CN(C(=O)[C@H](Cc1ccccc1)NC(=O)NS(=O)(=O)c1ccccc1)c1ccc(Cl)cc1 [Example 88] | 100 to 1000 | 450

SMILES | EC50 [1] [nM] | EC50 [2] [nM]
COc1cccc(N(C)C(=O)[C@H](Cc2ccccc2)NC(=O)NS(=O)(=O)c2ccccc2)c1 [Example 89] | 100 to 1000 | 
Cc1cccc(N(C)C(=O)[C@H](Cc2ccccc2)NC(=O)NS(=O)(=O)c2ccccc2)c1 [Example 90] | 100 to 1000 | 
CN(C(=O)[C@H](Cc1ccccc1)NC(=O)NS(=O)(=O)c1ccccc1)c1ccc(F)cc1 [Example 91] | 100 to 1000 | 
COc1ccc(N(C)C(=O)[C@H](Cc2ccccc2)NC(=O)NS(=O)(=O)c2ccccc2)cc1 [Example 92] | 100 to 1000 | 
CN(C(=O)[C@H](Cc1ccccc1)NC(=O)NS(=O)(=O)c1ccccc1)c1cccc(F)c1 [Example 93] | 1000 to 10000 | 1590
CN(C(=O)[C@H](Cc1ccccc1)NC(=O)NS(=O)(=O)c1ccccc1)c1cccc2ccccc12 [Example 94, (S)—N-methyl-N-(naphthalen-1-yl)-3-phenyl-2-(3-(phenylsulfonyl)ureido)-propanamide] | 10000 to 100000 | 
COc1ccccc1N(C)C(=O)[C@H](Cc1ccccc1)NC(=O)NS(=O)(=O)c1ccccc1 [Example 95, (S)—N-(2-methoxyphenyl)-N-methyl-3-phenyl-2-(3 (phenylsulfonyl)ureido)-propanamide] | 1000 to 10000 | 
CCN(CC)CCN(C)C(=O)[C@H](Cc1ccccc1)NC(=O)NS(=O)(=O)c1ccccc1 [Example 96, (S)—N-(2-(diethylamino)ethyl)-N-methyl-3-phenyl-2-(3-(phenylsulfonyl)ureido)propanamide] |  | > 100000
Cc1nc(-c2ccc(CN(C)C(=O)[C@H](Cc3ccccc3)NC(=O)NS(=O)(=O)c3ccccc3)cc2)no1 [Example 97, (S)—N-methyl-N-(4-(5-methyl-1,2,4-oxadiazol-3-yl)benzyl)-3-phenyl-2-(3-(phenylsulfonyl)ureido)propanamide] | 1000 to 10000 | 
CN(C(=O)[C@H](Cc1ccccc1)NC(=O)NS(=O)(=O)c1c(F)cccc1F)c1ccc2c(c1)OCO2 [Example 98, (S)—N-(benzo[d][1,3]dioxol-5-yl)-2-(3-((2,6-difluorophenyl)sulfonyl)ureido)-N-methyl-3-phenylpropanamide] | < 100 | 90
CN(C(=O)[C@H](Cc1ccccc1)NC(=O)NS(=O)(=O)c1cc(F)ccc1F)c1ccc2c(c1)OCO2 [Example 99, (S)—N-(benzo[d][1,3]dioxol-5-yl)-2-(3-((2,5-difluorophenyl)sulfonyl)ureido)-N-methyl-3-phenylpropanamide] | 100 to 1000 | 150
CN(C(=O)[C@H](Cc1ccccc1)NC(=O)NS(=O)(=O)c1c(Cl)cccc1Cl)c1ccc2c(c1)OCO2 [Example 100, (S)—N-(benzo[d][1,3]dioxol-5-yl)-2-(3-((2,6-dichlorophenyl)sulfonyl)ureido)-N-methyl-3-phenylpropanamide] | < 100 | 
CN(C(=O)[C@H](Cc1ccccc1)NC(=O)NS(=O)(=O)Cc1ccccc1Cl)c1ccc2c(c1)OCO2 [Example 101, (S)—N-(benzo[d][1,3]dioxol-5-yl)-2-(3-((2-chlorobenzyl)sulfonyl)ureido)-N-methyl-3-phenylpropanamide] | 100 to 1000 | 
CN(C(=O)[C@H](Cc1ccccc1)NC(=O)NS(=O)(=O)Cc1ccc(Cl)c(Cl)c1)c1ccc2c(c1)OCO2 [Example 102, (S)—N-(benzo[d][1,3]dioxol-5-yl)-2-(3-((3,4-dichlorobenzyl)sulfonyl)ureido)-N-methyl-3-phenylpropanamide] | 100 to 1000 | 
CN(C(=O)[C@H](Cc1ccccc1)NC(=O)NS(=O)(=O)Cc1cccc(Cl)c1)c1ccc2c(c1)OCO2 [Example 103, (S)—N-(benzo[d][1,3]dioxol-5-yl)-2-(3-((3-chlorobenzyl)sulfonyl)ureido)-N-methyl-3-phenylpropanamide] | 100 to 1000 | 
Cc1ccccc1CS(=O)(=O)NC(=O)N[C@@H](Cc1ccccc1)C(=O)N(C)c1ccc2c(c1)OCO2 [Example 104, (S)—N-(benzo[d][1,3]dioxol-5-yl)-N-methyl-2-(3-((2-methylbenzyl)sulfonyl)ureido)-3-phenylpropanamide] | 100 to 1000 | 620
CN(C(=O)[C@H](Cc1ccccc1)NC(=O)NS(=O)(=O)Cc1ccc(C(F)(F)F)cc1)c1ccc2c(c1)OCO2 [Example 105, (S)—N-(benzo[d][1,3]dioxol-5-yl)-N-methyl-3-phenyl-2-(3-((4-(trifluoromethyl)benzyl)sulfonyl)ureido)propanamide] | 100 to 1000 | 
CC(C)C1CC1S(=O)(=O)NC(=O)N[C@@H](Cc1ccccc1)C(=O)N(C)c1ccc2c(c1)OCO2 (stereo partly drawn) [Example 106, (2S)—N-(benzo[d][1,3]dioxol-5-yl)-2-(3-((2-isopropylcyclopropyl)sulfonyl)ureido)-N-methyl-3-phenylpropanamide] | 100 to 1000 | 
